From patent US9743646B2, “Method of establishing isogenic multi-xenograft model and the use thereof” (Crown Bioscience Inc. (Taicang), priority 2014, dated 2017)

Experiments:
Assay type in all cases: in vivo, Nude mice
[1] = system: SW48-KRAS (G12V/+) xenograft (HD 103-007); test: Tumor volume of SW48-KRAS (G12V/+) xenograft in isogenic dual-xenograft mice
Procedure: (§1) The SW48 series colorectal adenocarcinoma cells were obtained from Horizon Discovery Ltd (see below in Table 1 for Catalogue number details), and maintained in vitro as a monolayer culture in McCoy's 5A medium supplemented with 10% heat inactivated fetal bovine serum, 2 mM L-glutamine, with or without G418, at 37° C. in an atmosphere of 5% CO2 in air. The tumor cells were routinely subcultured every 3-5 days by trypsin-EDTA treatment. Cells growing in an exponential growth phase were harvested and counted for tumor inoculation. HD 103-002 cell line was derived from parental SW48 cell line HD PAR-006 with heterozygous knock-in of KRAS activating mutation-G13D; HD 103-007 cell line was derived from parental SW48 cell line HD PAR-006 with heterozygous knock-in of KRAS activating mutation-G12V.
(§2) Each mouse is grafted subcutaneously at the left and right flank with SW48 tumor cells (1×10^7 cells) in 0.1 ml of PBS for tumor development, among which 15 mouse are grafted with 1×10^7HD PAR-006 cells at their left flank and with 1×10^7 HD 103-002 cells at their right flank, and the other 15 mouse are grafted with 1×10^7 HD PAR-006 cells at their left flank and with 1×10^7 HD103-007 cells at their right flank. Mice with xenografts are then allow sufficient time (in present embodiment, around 5-8 days) to develop solid tumor.
(§3) Isogenic dual-xenograft mice produced in accordance to the methods described in Example 1 were used to evaluate test agents for their efficacy on the disease associated with mutations of gene. More specifically, mice with different KRAS mutations were treated with EGFR inhibitors to address the question of resistant phenotypes elicited by different KRAS mutations. This design allows direct comparison of wild type and mutant isogenic pairs for treatment responses that are associated with the defined genetic variations.
(§4) The major endpoint was to evaluate the tumor growth. Tumor sizes were measured twice weekly in two dimensions using a caliper, and the volume were expressed in mm3 using the formula: V=0.5 a×b^2, where a and b are the long and short diameters of the tumor, respectively.

[2] = system: SW48-parental xenograft (HD PAR-006, KRAS WT); test: Tumor volume of SW48-parental xenograft in isogenic dual-xenograft mice; conditions: Erlotinib 50 mg/kg p.o. once daily, 14 days, vs saline
Procedure: as §1, with “mutation-G12V. […]” for “mutation-G12V.”
as §4

[3] = system: SW48-KRAS (G13D/+) xenograft (HD 103-002); test: Tumor volume of SW48-KRAS (G13D/+) xenograft in isogenic dual-xenograft mice
Procedure: as §1, §2, §3, §4

[4] = Erlotinib 50 mg/kg p.o. once daily, 14 days
[5] = Erlotinib 50 mg/kg, p.o., Qd x 14, SW48 KRAS(G12V/+), tumor volume
[6] = Erlotinib 50 mg/kg, p.o., Qd x 14, SW48 KRAS(G13D/+), tumor volume

C#Cc1cccc(Nc2ncnc3cc(OCCOC)c(OCCOC)cc23)c1 [Erlotinib]
response of SW48 KRAS (G12V/+) compared to the parental line [1, 4]: resistant | reduction on the tumor volume of the SW48-KRAS (G12V/+) xenograft (FIG. 2B) ([1]; Erlotinib 50 mg/kg p.o. once daily, 14 days, compared with parental xenograft): not as significant as on the SW48-KRAS-parental xenograft | T/C on Day 21 [1, 5]: 86% | TGI on Day 21 [1, 5]: 14% | effect on tumor volume of the SW48-parental xenograft (FIG. 2A) ([2]; dual model with SW48-KRAS (G12V/+)): reduced | effect on tumor volume of the SW48-parental xenograft (FIG. 1A) ([2]; dual model with SW48-KRAS (G13D/+)): significantly reduced | response of SW48 KRAS (G13D/+) compared to the parental line [3, 4]: remains sensitive | effect on tumor volume of the SW48-KRAS (G13D/+) xenograft (FIG. 1B) ([3]; Erlotinib 50 mg/kg p.o. once daily, 14 days, vs saline): significantly reduced | T/C on Day 21 [3, 6]: 24% | TGI on Day 21 [3, 6]: 76%
